One may read the AC50 as the concentration at which the activity in the assay is half-maximal. In general, EC50 refers to the midpoint of the concentration-response curve.

The target in assay [1] is Endoplasmic reticulum aminopeptidase 1 (Homo sapiens, UniProt Q9NZ08). The assay is described as follows: ERAP1 aminopeptidase inhibitors, dose response, biochemical, cherry-pick, set 2, plate reader (AID 743314).
Assay [2] addresses T1, Polyadenylate-binding protein 1 (Homo sapiens, UniProt P11940). Nature of the assay: PABP1 MLLE–PAM2 interaction inhibitors, dose response, miRNA deadenylation inhibitor project, biochemical, fluorescence polarization, Cy5-PAM2 peptide, secondary (AID 602260). Type of assay: functional. To be noted: read-out: IC50_Mean.
The target of assay [3] is Protein Rev (Human immunodeficiency virus type 1 group M subtype B (isolate HXB2)(HIV-1), UniProt P04618). The assay is described as follows: inhibitors of Rev binding to RRE RNA, dose response, biochemical, fluorescence polarization, HIV-1 (AID 434976). The arrangement: species or system Human immunodeficiency virus 1.
Protein Rev, sequence (P04618 whole entry): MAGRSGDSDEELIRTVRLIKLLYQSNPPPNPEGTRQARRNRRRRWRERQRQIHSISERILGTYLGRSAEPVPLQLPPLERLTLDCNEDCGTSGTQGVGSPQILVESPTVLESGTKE
In assay [4] the target is Female germline-specific tumor suppressor gld-1 (Caenorhabditis elegans, UniProt Q17339). The assay is described as follows: inhibitors of GLD-1 binding to TGE RNA, dose response, biochemical, fluorescence polarization, C. elegans (AID 2802).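 Note: fluorescence polarization of labeled TGE RNA bound by purified gld-1 protein.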 A general note: Polarisation of emitted light reports the rotation of a fluorescent probe.
Female germline-specific tumor suppressor gld-1, sequence (Q17339 whole entry): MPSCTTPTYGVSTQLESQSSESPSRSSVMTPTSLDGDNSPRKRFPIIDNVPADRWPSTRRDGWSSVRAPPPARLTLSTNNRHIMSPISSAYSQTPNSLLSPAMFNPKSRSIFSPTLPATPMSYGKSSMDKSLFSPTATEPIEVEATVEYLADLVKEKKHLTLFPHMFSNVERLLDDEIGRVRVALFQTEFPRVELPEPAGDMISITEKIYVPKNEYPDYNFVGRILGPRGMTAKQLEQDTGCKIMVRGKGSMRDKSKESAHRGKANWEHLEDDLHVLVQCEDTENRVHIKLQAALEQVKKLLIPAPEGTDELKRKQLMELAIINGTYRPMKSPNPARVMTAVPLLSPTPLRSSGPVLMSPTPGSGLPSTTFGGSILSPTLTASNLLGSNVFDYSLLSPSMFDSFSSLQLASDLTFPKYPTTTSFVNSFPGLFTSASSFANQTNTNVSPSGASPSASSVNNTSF
Assay [5] has as its target T1, Polyadenylate-binding protein 1. Nature of the assay: PABP1 MLLE–PAM2 binding inhibitor potency, dose response, biochemical, fluorescence polarization, FITC-PAM2 peptide (AID 602259). It is filed as functional. To be noted: read-out: IC50_Mean.
Assay [6] has the same target. The assay is described as follows: PABP inhibition in translation initiation, SAR follow-up (AID 435018). Type of assay: functional.
For assay [7], the target named is Eukaryotic translation initiation factor 4H (Homo sapiens, UniProt Q15056). The assay is described as follows: eIF4H inhibition in translation initiation, SAR follow-up (AID 435011). It is filed as functional.
In assay [8] the target is T2, Delta-type opioid receptor (Homo sapiens, UniProt P41143). The assay is described as follows: HTS Image-Based Screen for Antagonists of the DOR Receptor. [Related pubchem assays (depositor defined):AID1777, AID1785, AID1786, AID2133]. Type of assay: functional.
T2 sequence (P41143 whole entry): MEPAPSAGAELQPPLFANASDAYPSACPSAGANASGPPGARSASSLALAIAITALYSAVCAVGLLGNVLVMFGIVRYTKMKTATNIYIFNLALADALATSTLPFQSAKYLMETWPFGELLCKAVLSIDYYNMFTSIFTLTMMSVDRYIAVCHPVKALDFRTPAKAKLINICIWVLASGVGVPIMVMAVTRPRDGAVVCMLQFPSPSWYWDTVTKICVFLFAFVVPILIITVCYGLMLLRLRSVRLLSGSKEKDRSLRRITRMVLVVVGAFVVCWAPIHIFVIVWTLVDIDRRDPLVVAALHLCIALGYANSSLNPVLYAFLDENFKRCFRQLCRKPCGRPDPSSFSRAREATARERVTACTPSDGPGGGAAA
Assay [9] has as its target Melanocortin receptor 4 (Homo sapiens, UniProt P32245). Type of assay: functional, cell-based.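 Note: Cell-based assay with luminescence read-out, confirmatory dose-response testing for agonist activity of biased ligands at MC4R; human U2OS cells with tagged receptor and beta-arrestin; potency of agonists that increase receptor coupling to beta-arrestin.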
Assay [10] deals with T2, Delta-type opioid receptor. The assay is described as follows: HTS Image-Based Screen for Agonists of the DOR Receptor. [Related pubchem assays (depositor defined):AID1777, AID1786, AID2133]. It is filed as functional.
The target of assay [11] is T3, Kappa-type opioid receptor (Homo sapiens, UniProt P41145). Type of assay: functional.
T3 sequence (P41145 whole entry): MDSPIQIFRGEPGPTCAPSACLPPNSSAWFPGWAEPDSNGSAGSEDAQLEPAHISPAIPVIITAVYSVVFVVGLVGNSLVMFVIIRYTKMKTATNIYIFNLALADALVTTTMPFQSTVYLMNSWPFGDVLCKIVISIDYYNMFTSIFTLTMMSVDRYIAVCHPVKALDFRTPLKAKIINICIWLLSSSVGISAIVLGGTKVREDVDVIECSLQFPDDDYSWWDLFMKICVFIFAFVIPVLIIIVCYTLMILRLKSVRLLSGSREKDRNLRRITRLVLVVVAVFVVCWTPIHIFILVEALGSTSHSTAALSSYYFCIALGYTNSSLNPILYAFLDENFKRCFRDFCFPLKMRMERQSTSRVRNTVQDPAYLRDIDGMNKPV
The target of assay [12] is Mu-type opioid receptor (Homo sapiens, UniProt P35372). Nature of the assay: HTS Image-Based Screen for Agonists of the MOR Receptor. [Related pubchem assays (depositor defined):AID1777, AID1785, AID1786, AID2133]. It is filed as functional.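 Note: imaging of beta-arrestin GFP recruitment into spots after receptor activation.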
Assay [13] addresses T3, Kappa-type opioid receptor. It is filed as functional. This is another data set of the same source.
For assay [14], the target named is Voltage-dependent T-type calcium channel subunit alpha-1H (Homo sapiens, UniProt O95180). Nature of the assay: Cav3.2 T-type channel inhibitors, cell-based, synthetic library set 1, calcium flux (AID 493022). It is filed as functional.
Assay [15] concerns the target Beta-galactosidase (Escherichia coli, UniProt Q8VNN2). Nature of the assay: beta-galactosidase enzyme inhibitors and activators, dose response, artefact control for CCR6 antagonist project, biochemical, E. coli enzyme, set 3 (AID 504712). It is filed as functional.
The target in assay [16] is C-C chemokine receptor type 6 (Homo sapiens, UniProt P51684). Nature of the assay: CCR6 receptor antagonists, dose response, cell-based, luminescent beta-arrestin readout (AID 504728). Type of assay: functional.
C-C chemokine receptor type 6, sequence (P51684 whole entry): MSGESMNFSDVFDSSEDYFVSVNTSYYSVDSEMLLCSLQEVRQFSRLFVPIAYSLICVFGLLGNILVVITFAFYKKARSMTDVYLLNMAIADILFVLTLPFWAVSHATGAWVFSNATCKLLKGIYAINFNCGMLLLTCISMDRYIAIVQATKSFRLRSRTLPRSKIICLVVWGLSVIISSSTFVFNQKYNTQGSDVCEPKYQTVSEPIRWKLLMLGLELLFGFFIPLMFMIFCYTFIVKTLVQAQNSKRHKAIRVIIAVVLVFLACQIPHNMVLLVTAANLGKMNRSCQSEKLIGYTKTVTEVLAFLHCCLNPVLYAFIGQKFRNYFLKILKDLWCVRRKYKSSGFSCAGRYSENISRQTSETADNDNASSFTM

Each structure is given as a SMILES string. Active and inactive are the calls of the source.

T1 sequence (P11940 whole entry): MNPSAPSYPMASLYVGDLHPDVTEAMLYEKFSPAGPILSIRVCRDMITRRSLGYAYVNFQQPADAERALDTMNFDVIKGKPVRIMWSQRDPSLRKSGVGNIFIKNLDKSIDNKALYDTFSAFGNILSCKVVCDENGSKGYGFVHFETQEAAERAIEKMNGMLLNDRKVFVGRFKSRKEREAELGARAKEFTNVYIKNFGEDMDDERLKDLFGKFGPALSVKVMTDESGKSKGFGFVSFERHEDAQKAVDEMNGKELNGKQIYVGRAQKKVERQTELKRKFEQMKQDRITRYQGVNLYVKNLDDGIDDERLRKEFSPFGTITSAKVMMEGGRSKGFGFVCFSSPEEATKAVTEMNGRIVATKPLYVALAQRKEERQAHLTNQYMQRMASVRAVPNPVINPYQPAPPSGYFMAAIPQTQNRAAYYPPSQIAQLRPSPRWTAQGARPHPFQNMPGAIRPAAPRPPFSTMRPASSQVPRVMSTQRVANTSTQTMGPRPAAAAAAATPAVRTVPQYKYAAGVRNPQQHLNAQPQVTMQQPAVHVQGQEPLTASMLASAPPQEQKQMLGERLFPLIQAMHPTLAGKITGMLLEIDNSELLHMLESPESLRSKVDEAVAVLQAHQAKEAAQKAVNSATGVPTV
Endoplasmic reticulum aminopeptidase 1, sequence (Q9NZ08 whole entry): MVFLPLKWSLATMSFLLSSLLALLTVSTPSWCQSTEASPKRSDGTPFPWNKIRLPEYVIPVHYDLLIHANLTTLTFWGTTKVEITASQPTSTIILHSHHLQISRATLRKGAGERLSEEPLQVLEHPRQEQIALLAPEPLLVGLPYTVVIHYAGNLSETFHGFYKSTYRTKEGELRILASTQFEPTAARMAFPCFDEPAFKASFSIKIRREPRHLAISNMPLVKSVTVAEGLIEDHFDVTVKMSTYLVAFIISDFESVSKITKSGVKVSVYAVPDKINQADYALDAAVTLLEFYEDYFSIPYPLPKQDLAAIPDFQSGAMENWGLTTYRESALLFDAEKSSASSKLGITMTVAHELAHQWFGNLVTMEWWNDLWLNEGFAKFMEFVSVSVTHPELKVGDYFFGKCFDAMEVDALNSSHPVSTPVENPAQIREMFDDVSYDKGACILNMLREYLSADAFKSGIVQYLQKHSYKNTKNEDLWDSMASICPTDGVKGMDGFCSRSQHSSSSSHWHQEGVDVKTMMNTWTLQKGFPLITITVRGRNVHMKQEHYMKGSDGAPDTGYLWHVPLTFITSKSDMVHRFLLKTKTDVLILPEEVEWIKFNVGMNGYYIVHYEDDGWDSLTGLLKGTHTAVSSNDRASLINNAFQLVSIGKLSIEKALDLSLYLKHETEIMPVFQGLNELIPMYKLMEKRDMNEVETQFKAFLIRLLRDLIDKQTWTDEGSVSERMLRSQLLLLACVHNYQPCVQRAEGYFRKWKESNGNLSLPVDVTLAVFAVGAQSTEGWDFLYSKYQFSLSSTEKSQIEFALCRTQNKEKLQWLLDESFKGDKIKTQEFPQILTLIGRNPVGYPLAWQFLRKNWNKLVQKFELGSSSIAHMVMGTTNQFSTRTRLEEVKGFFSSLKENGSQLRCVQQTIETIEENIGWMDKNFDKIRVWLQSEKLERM
Melanocortin receptor 4, sequence (P32245 whole entry): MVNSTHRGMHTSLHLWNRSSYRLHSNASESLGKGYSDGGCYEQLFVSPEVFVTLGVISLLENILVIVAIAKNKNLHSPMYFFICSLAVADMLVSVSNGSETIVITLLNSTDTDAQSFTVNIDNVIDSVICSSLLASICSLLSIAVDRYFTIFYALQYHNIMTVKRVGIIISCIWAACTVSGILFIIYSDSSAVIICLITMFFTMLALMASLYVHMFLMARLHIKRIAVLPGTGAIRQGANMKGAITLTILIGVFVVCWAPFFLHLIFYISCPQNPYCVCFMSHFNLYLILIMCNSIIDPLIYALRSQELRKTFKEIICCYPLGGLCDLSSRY
Beta-galactosidase, sequence (Q8VNN2 whole entry): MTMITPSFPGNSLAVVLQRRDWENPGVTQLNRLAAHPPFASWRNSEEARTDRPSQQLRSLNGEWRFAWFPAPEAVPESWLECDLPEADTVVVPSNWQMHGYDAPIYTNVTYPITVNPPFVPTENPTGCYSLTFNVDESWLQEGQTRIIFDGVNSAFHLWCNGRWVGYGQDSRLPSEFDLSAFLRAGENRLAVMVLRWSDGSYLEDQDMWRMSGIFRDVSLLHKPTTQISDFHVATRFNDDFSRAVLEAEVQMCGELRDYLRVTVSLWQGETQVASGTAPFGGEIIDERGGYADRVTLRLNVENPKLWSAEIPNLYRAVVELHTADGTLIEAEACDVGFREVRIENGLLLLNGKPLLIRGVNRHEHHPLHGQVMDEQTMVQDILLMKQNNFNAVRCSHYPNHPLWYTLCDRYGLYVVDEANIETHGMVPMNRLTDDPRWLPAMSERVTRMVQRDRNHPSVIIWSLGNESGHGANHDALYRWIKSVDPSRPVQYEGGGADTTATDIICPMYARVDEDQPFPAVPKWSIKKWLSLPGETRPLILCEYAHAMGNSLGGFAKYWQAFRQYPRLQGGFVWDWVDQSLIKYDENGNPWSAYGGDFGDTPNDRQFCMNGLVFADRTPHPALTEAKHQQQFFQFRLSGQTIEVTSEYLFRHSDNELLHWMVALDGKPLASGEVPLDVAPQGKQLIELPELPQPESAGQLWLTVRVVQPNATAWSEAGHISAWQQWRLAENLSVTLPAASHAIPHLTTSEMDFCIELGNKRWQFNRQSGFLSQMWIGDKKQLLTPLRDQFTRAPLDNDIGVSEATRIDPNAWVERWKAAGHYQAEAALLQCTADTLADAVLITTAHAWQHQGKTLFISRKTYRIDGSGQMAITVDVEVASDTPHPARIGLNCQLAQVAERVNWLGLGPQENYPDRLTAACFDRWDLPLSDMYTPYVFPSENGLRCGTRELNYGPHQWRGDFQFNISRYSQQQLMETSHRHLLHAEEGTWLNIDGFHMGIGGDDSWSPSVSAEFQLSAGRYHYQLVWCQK

In the case of `Cc1c(O)ccc2cc(S(=O)(=O)c3ccccc3)c(=O)oc12`, in assay [1], the AC50 was 3.32 µM (active). Also, the IC50 in assay [2] is > 66 µM (inactive); in [3], 14.2 µM (not active); in assay [4], 4.72 µM (active); in [5], 46.7 µM (inactive).
In the case of `COc1ccc(OC)c([N+]2=C3SCCCN3C(O)(c3cccs3)C2)c1` (stereo unspecified), the IC50 in assay [6] and in assay [7] was > 100 µM (inactive) in each case.
Turning to `Cc1ccccc1NC(=O)c1ccc(COc2ccc3c(C)cc(=O)oc3c2)cc1`, the IC50 in assay [8] is > 32 µM (inactive). Besides, the EC50 is > 89.3 µM (inactive) in assay [9]; > 32 µM (inactive) in [10]; 18.1 µM in assay [11]; > 32 µM (inactive) in [12]; over 35 µM in assay [13].
In the case of `O=C(COc1ccc(F)cc1)Nc1nnc(-c2ccc(F)c(F)c2)o1`, the concentration for a half-maximal effect (EC50) in assay [14] was 3.7 µM (active).
As for `CN(C)CC1CCC/C(=C\c2ccc(OC(=O)c3ccc(Cl)cc3)cc2)C1=O` (stereo unspecified), the IC50 in [15] was > 66.6 µM (inactive); in [16] it was 47.6 µM (inactive).
